{"source": "paper PMC11484933", "about": "“Active state structures of a bistable visual opsin bound to G proteins” (Nature Communications, 2024)", "key": {"jsGiq (Gαiqβ1γ2)": {"target": "T1, jsGiq (Gαiqβ1γ2) (Homo sapiens, UniProt P63096, A31R/D193S/L194I/D337C/T340K/V342T/I344L/K345Q/D350E/G352N/F354V)", "T1 construct": "gene GNAI1; heterotrimer from High Five insect cells, His tag removed with HRV 3C", "T1 sequence (P63096 2-354 A31R/D193S/L194I/D337C/T340K/V342T/I344L/K345Q/D350E/G352N/F354V)": "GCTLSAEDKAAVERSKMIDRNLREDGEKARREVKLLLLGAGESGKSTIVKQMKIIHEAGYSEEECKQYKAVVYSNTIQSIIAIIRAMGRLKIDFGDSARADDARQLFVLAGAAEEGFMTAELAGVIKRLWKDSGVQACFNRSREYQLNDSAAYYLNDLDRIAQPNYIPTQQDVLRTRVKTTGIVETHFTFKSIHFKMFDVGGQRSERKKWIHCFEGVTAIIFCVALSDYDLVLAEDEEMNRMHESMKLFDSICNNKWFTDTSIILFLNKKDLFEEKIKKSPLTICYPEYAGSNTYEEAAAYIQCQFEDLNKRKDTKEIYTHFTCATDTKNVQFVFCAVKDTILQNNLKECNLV", "T1 sequence (P62873 2-340 partner)": "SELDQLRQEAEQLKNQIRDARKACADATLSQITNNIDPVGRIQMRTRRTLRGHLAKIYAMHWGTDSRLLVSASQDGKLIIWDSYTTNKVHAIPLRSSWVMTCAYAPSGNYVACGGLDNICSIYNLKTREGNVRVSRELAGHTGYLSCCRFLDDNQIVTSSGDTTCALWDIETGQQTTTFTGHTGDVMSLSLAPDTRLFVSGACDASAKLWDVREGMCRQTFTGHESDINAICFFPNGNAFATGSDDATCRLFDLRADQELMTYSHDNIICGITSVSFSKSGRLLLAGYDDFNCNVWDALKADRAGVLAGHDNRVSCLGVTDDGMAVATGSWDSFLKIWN", "T1 sequence (P59768 2-68 partner)": "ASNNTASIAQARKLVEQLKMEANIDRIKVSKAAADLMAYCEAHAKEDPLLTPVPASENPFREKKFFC", "test": "GTPase-Glo luminescence assay", "assay_type": "biochemical", "settings": "2 uM G protein, 2 uM GTP stock mixed 1:1; 20 C; with and without JSR1-ATR6.11"}, "[1]": {"target": "T2, hGi (Gαi1β1γ1 heterotrimer) (Homo sapiens, UniProt P63096)", "T2 construct": "gene GNAI1; human Galphai1 with N-terminal TEV-cleavable deca-His tag from E. coli BL21(DE3); Gbeta1gamma1 from transducin of bovine retinae", "T2 sequence (P63096 2-354)": "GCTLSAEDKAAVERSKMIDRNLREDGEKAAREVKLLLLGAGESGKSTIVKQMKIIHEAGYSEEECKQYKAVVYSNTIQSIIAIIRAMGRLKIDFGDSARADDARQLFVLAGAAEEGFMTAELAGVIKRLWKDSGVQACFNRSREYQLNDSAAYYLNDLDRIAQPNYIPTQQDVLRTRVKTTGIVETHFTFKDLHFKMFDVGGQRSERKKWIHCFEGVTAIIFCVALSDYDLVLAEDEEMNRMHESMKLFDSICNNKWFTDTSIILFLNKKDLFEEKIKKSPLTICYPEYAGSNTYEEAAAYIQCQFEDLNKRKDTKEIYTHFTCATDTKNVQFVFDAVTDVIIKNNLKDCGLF", "T2 sequence (P62871 2-340 partner)": "as the sequence (P62873 2-340 partner) above", "T2 sequence (P02698 2-71 partner)": "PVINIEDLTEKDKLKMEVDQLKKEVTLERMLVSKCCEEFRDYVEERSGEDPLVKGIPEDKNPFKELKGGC", "test": "GTPase-Glo luminescence assay", "assay_type": "biochemical", "settings": "2 uM G protein, 2 uM GTP stock mixed 1:1; 20 C; with and without JSR1-ATR6.11"}}}
{"smiles": "Nc1nc2c(ncn2[C@@H]2O[C@H](COP(=O)(O)OP(=O)(O)OP(=O)(O)O)[C@@H](O)[C@H]2O)c(=O)[nH]1", "note": "[GTP]", "values": [{"measurement": "GTP hydrolysis %", "setting": "jsGiq (Gαiqβ1γ2)", "result": "An in vitro activity assay showed that this chimera retains intrinsic GTPase activity"}, {"measurement": "GTP hydrolysis %", "setting": "[1]", "result": "GTPase-Glo assay showing GTP depletion for hGi and jsGiq samples"}]}
